Source: patent US8420888B2, “Chloroplast transit peptides for efficient targeting of DMO and uses thereof” (Monsanto Technology LLC, priority 2007, dated 2013)

Tested on: soybean plants
Assay: Pre- and post-emergence dicamba tolerance of transgenic soybean
Format: in vivo
Details: wild type soybean; dicamba at post-V3 stage at 1 lb/a rate
Excerpt: Several DMO expression units were constructed by operably linking one of each various promoters, CTPs, DMO variants, and 3′UTRs to obtain efficient DMO expression units for product development.

Work on `COc1c(Cl)ccc(Cl)c1C(=O)O` [dicamba, 3,6-dichloro-o-anisic acid] yielded an injury rate of 60%.
